Experimental data from publication PMC6349357, “Computational and experimental analysis of bioactive peptide linear motifs in the integrin adhesome” (PLoS ONE, 2019).
Marks after values point to notes of the source that are not given here.

Assays:
[1] = test system: TRAP-activated platelets; assay: Inhibition of TRAP-induced platelet aggregation after pre-incubation with peptide; type: cell-based, human (healthy volunteers); settings: for Summary of effects of SDC4-derived palmitylated peptides and scrambled controls, 20μM: S2 Table B / S2 Fig, activation of resting platelets and inhibition of aggregation induced by 4 μM TRAP, in words; for Inhibition, donor 20_08_13: replicate 20_08_13; for Aggregation after TRAP activation, donor h: replicate donor h; for Aggregation after TRAP activation, donor h / Aggregation after TRAP activation, donor i / Aggregation after TRAP activation, donor j: pal 20 μM, tat 50 μM; for Aggregation after TRAP activation, donor i: replicate donor i; for Aggregation after TRAP activation, donor j: replicate donor j
Experimental: (§1) Blood was drawn from healthy volunteers into a syringe containing a final volume of 15% Acid Citrate Dextrose (ACD). The blood/ACD mixture was then aliquoted into 15 ml Cellstar tubes, at volumes of 5ml per tube, and centrifuged at 150 rcf for 10 minutes to obtain platelet rich plasma (PRP). PRP was then transferred to a 50ml tube using a pipette. The pH was then adjusted to 6.5. Prostaglandin (PGE1) was then added with a final concentration of 1μM. The PRP was then centrifuged at 750 rcf. After centrifugation the platelet poor plasma (PPP) was discarded and the pellet was resuspended in buffer A (6 mM dextrose, 130 mM NaCl, 9 mM NaHCO3, 10 mM sodium citrate, 10 mM Tris base, 3 mM KCl, 0.81 mM KH2PO4 and 0.9 mM MgCl26H2O, pH 7.4). A platelet concentration of 3x10^5/μl or 1x10^6/μl was obtained by dilution depending on the experiment in which they were used. Platelets were left to rest for 45 minutes and supplemented with 1.8mM calcium chloride prior to use.
(§2) A platelet concentration of 3x10^5 /μl was used when performing standard aggregations and a concentration of 1x10^6 /μl was used for sample preparation for western blot analysis. The extent of platelet aggregation was measured by quantifying the optical density of the samples using the Bio-Data PAP-8 aggregometer (platelet aggregation profiler, Horsham, PA, USA). A temperature of 37°C was maintained and samples were stirred using magnets spinning at 1100 rpm. 200 μl of washed platelets was added to each aggregation tube. Different volumes of buffer, peptide and TRAP were added to achieve the desired concentrations. Peptide/buffer was added to each well after two minutes. TRAP, with a final concentration depending on the experiment, was added 6 minutes later and data was collected for an additional 7 minutes.

[2] = test system: resting platelets; assay: Platelet aggregation induced by peptide in resting washed platelets (activation); type: cell-based, human (healthy volunteers); settings: for Activation, 5μM / Activation, 20μM: S3 Table, n=3; for Activation, 5μM: peptide 5 μM; for Activation, 20μM: peptide 20 μM; for Activation: platelet aggregation in resting platelets after 6 minutes incubation with peptide, pal-peptides 20 μM, tat-peptides 50 μM, optical density, aggregometer, mean, n>=3; for Activation, donor 20 08 13: replicate 20_08_13; for Activation, donor 22_08_13_DONOR1: replicate 22_08_13_DONOR1; for Activation, donor 22_08_13_DONOR2: replicate 22_08_13_DONOR2; for Aggregation before TRAP activation, donor h: replicate donor h; for Aggregation before TRAP activation, donor h / Aggregation before TRAP activation, donor i / Aggregation before TRAP activation, donor j: pal 20 μM, tat 50 μM; for Aggregation before TRAP activation, donor i: replicate donor i; for Aggregation before TRAP activation, donor j: replicate donor j
Experimental: as §1, §2

[3] = platelet aggregation induced by 4 μM TRAP in platelets pre-incubated with peptide (low value = inhibition), pal-peptides 20 μM, tat-peptides 50 μM, mean, n>=3
[4] = replicate 22_08_13_DONOR1, peptide 20 μM, TRAP 4 μM
[5] = replicate 22_08_13_DONOR2, peptide 20 μM, TRAP 4 μM
[6] = SDC4 peptides and controls, 20 μM, unit assumed
[7] = SDC4 peptides and controls, 20 μM
[8] = S3 Table, peptide 5 μM, aggregation after TRAP, n=3
[9] = S3 Table, peptide 20 μM, aggregation after TRAP, n=3

Substance: pal-RMKKKDEGSYD-(NH2) [pal-SDC4_JM, N-terminally palmitylated syndecan-4 juxtamembrane peptide]
- Aggregation (inhibition effects of syndecan-derived peptides) ([1]; S2 Table A, peptide 20 μM, TRAP 4 μM, mean, n=6): 45
- Summary of effects of SDC4-derived palmitylated peptides and scrambled controls, 20μM [1]: Inhibitor
- Platelet aggregation remaining after TRAP (low = inhibition) ([1]; S3 Table, peptide 5 μM, aggregation after TRAP, n=3, listed as A7p SDC4-JM): 75
- Platelet aggregation remaining after TRAP (low = inhibition) ([1]; S3 Table, peptide 5 μM, aggregation after TRAP, n=3, listed as Juxtamembrane (A)): 64
- Platelet aggregation remaining after TRAP (low = inhibition) ([1]; S3 Table, peptide 20 μM, aggregation after TRAP, n=3, listed as A7p SDC4-JM): 73
- Platelet aggregation remaining after TRAP (low = inhibition) ([1]; S3 Table, peptide 20 μM, aggregation after TRAP, n=3, listed as Juxtamembrane (A)): 45
- Aggregation after TRAP, peptide alone 1x (A 1x / B 1x) ([1]; TRAP 2 μM after 6 minutes pre-incubation, 4 μM pal-peptides, 10 μM tat-peptides, mean n = 3): 66.33
- Aggregation after TRAP, peptide alone 2x (A 2x / B 2x) ([1]; TRAP 2 μM after 6 minutes pre-incubation, double concentration of 4 μM (pal) / 10 μM (tat), mean n = 3): 64.33
- Platelet aggregation after TRAP activation [1, 3]: 4 ^*
- Inhibition, donor 14_06_13 ([1]; replicate 14_06_13, peptide 20 μM, TRAP 4 μM): 72
- Inhibition, donor 18_06_13 ([1]; replicate 18_06_13, peptide 20 μM, TRAP 4 μM): 56
- Inhibition, donor 20_06_13 ([1]; replicate 20_06_13, peptide 20 μM, TRAP 4 μM): 74
- Inhibition, donor 20_08_13 ([1]; peptide 20 μM, TRAP 4 μM): 7
- Platelet aggregation remaining after TRAP (low = inhibition) [1, 4]: 3
- Platelet aggregation remaining after TRAP (low = inhibition) [1, 5]: 58
- Aggregation after TRAP activation, donor h ([1]; TRAP 4 μM): 4
- Aggregation after TRAP activation, donor i ([1]; TRAP 4 μM): 3
- Aggregation after TRAP activation, donor j ([1]; TRAP 4 μM): 5
- Activation, 5μM ([2]; unit assumed): 2%
- Activation, 20μM ([2]; unit assumed): 1%
- Activation ([2]; unit assumed): 0%
- Activation, donor 14 06 13 ([2]; replicate 14_06_13, SDC4 peptides and controls, 20 μM, unit assumed): 1%
- Activation, donor 18_06_13 ([2]; replicate 18_06_13, SDC4 peptides and controls, 20 μM, in % (unit assumed)): 1
- Activation, donor 20_06_13 ([2]; replicate 20_06_13, SDC4 peptides and controls, 20 μM, in % (unit assumed)): 2
- Activation, donor 20 08 13 [2, 6]: 1%
- Activation, donor 22_08_13_DONOR1 [2, 7]: 0
- Activation, donor 22_08_13_DONOR2 [2, 7]: 1
- Aggregation before TRAP activation, donor h [2]: 1
- Aggregation before TRAP activation, donor i [2]: 0
- Aggregation before TRAP activation, donor j [2]: 2

Substance: pal-KVGAAKR-WEQLLTTIARTINEVENQI [B13p ITGA2b-JM2 U ACTN1-VBS, palmitylated chimeric peptide]
- Platelet aggregation remaining after TRAP (low = inhibition) [1, 8]: 75
- Platelet aggregation remaining after TRAP (low = inhibition) [1, 9]: 63
- Activation, 5μM ([2]; unit assumed): 3%
- Activation, 20μM ([2]; unit assumed): 12%

Substance: tat-EPDFPPPPPDLE-(NH2) [tat-VCL, tat peptide from VCL]
- Platelet aggregation remaining after TRAP (low = inhibition) [1, 3]: 70
- Aggregation after TRAP activation, donor h ([1]; TRAP 4 μM): 68
- Aggregation after TRAP activation, donor i ([1]; TRAP 4 μM): 67
- Aggregation after TRAP activation, donor j ([1]; TRAP 4 μM): 77
- Activation ([2]; unit assumed): 4%
- Aggregation before TRAP activation, donor h [2]: 4
- Aggregation before TRAP activation, donor i [2]: 4
- Aggregation before TRAP activation, donor j [2]: 4

Substance: NTYAFKAKEP [pal-KK-SDC4_tail Control 1, scrambled control of pal-KK-SDC4_tail, reference compound]
- Summary of effects of SDC4-derived palmitylated peptides and scrambled controls, 20μM [1]: No effect
- Inhibition, donor 20_08_13 ([1]; peptide 20 μM, TRAP 4 μM): 70
- Platelet aggregation remaining after TRAP (low = inhibition) [1, 4]: 76
- Platelet aggregation remaining after TRAP (low = inhibition) [1, 5]: 74
- Activation, donor 20 08 13 [2, 6]: 3%
- Activation, donor 22_08_13_DONOR1 [2, 7]: 1
- Activation, donor 22_08_13_DONOR2 [2, 7]: 3

Substance: pal-KVGAAKR-TLELDRLMASLS [B21p ITGA2b-JM2 U TGFB1I1-LD, palmitylated chimeric peptide]
- Platelet aggregation remaining after TRAP (low = inhibition) [1, 8]: 70
- Platelet aggregation remaining after TRAP (low = inhibition) [1, 9]: 28
- Activation, 5μM ([2]; unit assumed): 2%
- Activation, 20μM ([2]; unit assumed): 1%
